Publication PMC12349723, “Computationally accelerated identification of P-glycoprotein inhibitors” (PLOS One, 2025)
Several values for one entry are separate records, joined by “and”; a condition that tells them apart may be missing. Equal values may be shown once. Read-outs that look alike come from different tables or passages of the source.

How the values were obtained:
P-gp = target: T1, P-gp (Homo sapiens, UniProt P08183); assay: Top Hit classification from combined in vitro criteria; details: reverse MDR, do not increase PTX toxicity in chemo-sensitive cancer cells, non-toxic to noncancerous cells, not P-gp substrates
T1 construct: The MDR, P-gp overexpressing DU145-TXR cells were maintained under positive selection pressure; endogenous in cells; host or cells: DU145-TXR (paclitaxel-resistant sub-line of DU145 human prostate cancer cells)

DU145-TXR cells = assay: MTT viability assay, reversal of MDR (re-sensitization to paclitaxel) in P-gp overexpressing DU145-TXR cells; format: cell-based, human; details: for % Survival, mean / % Survival / viability at 15 µM: DU145-TXR; for viability at 15 µM: Homo sapiens
Experimental: (§1) The chemotherapeutic sensitive DU145 human prostate cancer cells and the multidrug resistant sub-line, DU145-TXR, were generous gifts from Dr. Evan Keller (University of Michigan, Ann Arbor, MI). The MDR, P-gp overexpressing DU145-TXR cells were maintained under positive selection pressure by supplementing complete medium with 10 nM paclitaxel (Acros Organics, NJ). In addition to the aforementioned cell lines, the chemotherapeutic sensitive A2780 ovarian cancer cells (93112519, Sigma) and the multidrug resistant A2780-ADR (93112520, Sigma) were maintained in complete RPMI media consisting of RPMI-1640 with L-glutamine, 10% fetal bovine serum (FBS; Corning), 100 U/mL penicillin and 100 μg/mL streptomycin in a humidified incubator at 37 °C and 5% CO2. The MDR, P-gp overexpressing A2780-ADR cell line was maintained under positive selection pressure by supplementing complete medium with 100 nM doxorubicin (Fisher Scientific, NJ). The non-cancerous HFL1 (human lung fibroblast) cell line cell line was a generous gift from Dr. Robert Harrod (Southern Methodist University, Dallas, TX) and was maintained in complete F12K media consisting of F12K with 10% fetal bovine serum, 100 U/mL penicillin, and 100 µg/mL streptomycin (Gibco). Flasks and 96 well plates that were used with the non-cancerous line HFL1 were pre-treated with 0.1 mg/ml Collagen Type 1 (Gibco) and rinsed with PBS (Fisher).
(§2) Culture of the DU145, DU145-TXR, and HFL1 cell lines was performed as described in [8]. Culture of the A2780 and A2780-ADR cell lines was performed as described in [9]. MTT assays were performed as described in [8] with minor modifications. LC-MS/MS accumulation assays were performed as described in {Nanayakkara, 2018 #173} [9] with some modifications. […] The inhibitor concentration was lowered to 15 µM here, as the goal of the study was to identify compounds that were effective in reversing MDR at low concentrations, and to determine if the expanded virtual-assisted methods improved on our first-draft attempt. Compounds 56–98 were pre-screened using Resazurin cell viability assays: cells were incubated with 15 µM compound with or without 500 nM PTX for 48 hours, after which cell survival was assessed similar to [39]. Data represent the mean of two separate experiments, with n = 3 samples per experiment (n = 6 total) (S4 Table). The top performing compounds from this initial screen were re-tested with MTT viability assays against DU145-TXR cells, as described below.
(§3) MTT assays measure the reduction of yellow, water soluble 3-(4,5-dimethylthiazol-2-yl)-2,5-diphenyltetrazolium bromide (MTT) to blue, insoluble formazan crystals by cellular reductase processes in living cells. Cells were trypsinized from monolayers and seeded in complete medium in 96 well plates. Cancerous cell lines (DU145, DU145-TXR, A2780, A2780-ADR) were seeded at 3,000 cells per well in complete RPMI medium. The non-cancerous HFL1 line was seeded at 4,000 cells per well in complete F12K medium, in collagen-treated plates (Collagen Type 1, Gibco). Cells were incubated with experimental compounds for 48 hours at 37 °C and 5% CO2 in a humidified incubator. At 48 hours, MTT was added (20 µL/well of 5 mg/mL MTT in PBS) to each well. After incubation for 4 hours, the media was removed, and the formazan crystals were dissolved in 100 µL DMSO per well. Plates containing the semi-adherent A2780 or A2780-ADR lines were spun at 1400 rpm for 3 minutes prior to aspiration of media, and the addition of DMSO. Plates were shaken for 10 minutes at 500 rpm on an Orbital shaker (LabDoctor from MidSci, St Louis, MO). The absorbance was measured at 570 nm using a Bio-Tek Cytation 5 (Bio-Tek, Winooski, VT). The measured absorbance value was correlated with the number of metabolically active cells in that well, corrected for absorbance of media. […]

A2780-ADR cells = assay: MTT viability assay, reversal of MDR in P-gp overexpressing A2780-ADR cells; format: cell-based, human; details: A2780-ADR cells; for % Survival (individual sample): single samples (trials 1-3, samples 1-4)
Experimental: as §1, §2, §3

[1] = 15 µM compound + 500 nM PTX (Paclitaxel, Taxol), mean of 8 samples
[2] = 15 µM compound + 500 nM PTX (Paclitaxel, Taxol), trial 1, sample 1
[3] = 15 µM compound + 500 nM PTX (Paclitaxel, Taxol), trial 1, sample 2
[4] = 15 µM compound + 500 nM PTX (Paclitaxel, Taxol), trial 1, sample 3
[5] = 15 µM compound + 500 nM PTX (Paclitaxel, Taxol), trial 1, sample 4
[6] = 15 µM compound + 500 nM PTX (Paclitaxel, Taxol), trial 2, sample 1
[7] = 15 µM compound + 500 nM PTX (Paclitaxel, Taxol), trial 2, sample 2
[8] = 15 µM compound + 500 nM PTX (Paclitaxel, Taxol), trial 2, sample 3
[9] = 15 µM compound + 500 nM PTX (Paclitaxel, Taxol), trial 2, sample 4
[10] = 15 µM Compound Alone, mean of 8 samples, read-out: % Survival, mean
[11] = 15 µM Compound Alone, trial 1, sample 1, read-out: % Survival
[12] = 15 µM Compound Alone, trial 1, sample 2, read-out: % Survival
[13] = 15 µM Compound Alone, trial 1, sample 3, read-out: % Survival
[14] = 15 µM Compound Alone, trial 1, sample 4, read-out: % Survival
[15] = 15 µM Compound Alone, trial 2, sample 1, read-out: % Survival
[16] = 15 µM Compound Alone, trial 2, sample 2, read-out: % Survival
[17] = 15 µM Compound Alone, trial 2, sample 3, read-out: % Survival
[18] = 15 µM Compound Alone, trial 2, sample 4, read-out: % Survival
[19] = 1 µM compound + 500 nM PTX, mean of 12 samples

T1 sequence (P08183 whole entry): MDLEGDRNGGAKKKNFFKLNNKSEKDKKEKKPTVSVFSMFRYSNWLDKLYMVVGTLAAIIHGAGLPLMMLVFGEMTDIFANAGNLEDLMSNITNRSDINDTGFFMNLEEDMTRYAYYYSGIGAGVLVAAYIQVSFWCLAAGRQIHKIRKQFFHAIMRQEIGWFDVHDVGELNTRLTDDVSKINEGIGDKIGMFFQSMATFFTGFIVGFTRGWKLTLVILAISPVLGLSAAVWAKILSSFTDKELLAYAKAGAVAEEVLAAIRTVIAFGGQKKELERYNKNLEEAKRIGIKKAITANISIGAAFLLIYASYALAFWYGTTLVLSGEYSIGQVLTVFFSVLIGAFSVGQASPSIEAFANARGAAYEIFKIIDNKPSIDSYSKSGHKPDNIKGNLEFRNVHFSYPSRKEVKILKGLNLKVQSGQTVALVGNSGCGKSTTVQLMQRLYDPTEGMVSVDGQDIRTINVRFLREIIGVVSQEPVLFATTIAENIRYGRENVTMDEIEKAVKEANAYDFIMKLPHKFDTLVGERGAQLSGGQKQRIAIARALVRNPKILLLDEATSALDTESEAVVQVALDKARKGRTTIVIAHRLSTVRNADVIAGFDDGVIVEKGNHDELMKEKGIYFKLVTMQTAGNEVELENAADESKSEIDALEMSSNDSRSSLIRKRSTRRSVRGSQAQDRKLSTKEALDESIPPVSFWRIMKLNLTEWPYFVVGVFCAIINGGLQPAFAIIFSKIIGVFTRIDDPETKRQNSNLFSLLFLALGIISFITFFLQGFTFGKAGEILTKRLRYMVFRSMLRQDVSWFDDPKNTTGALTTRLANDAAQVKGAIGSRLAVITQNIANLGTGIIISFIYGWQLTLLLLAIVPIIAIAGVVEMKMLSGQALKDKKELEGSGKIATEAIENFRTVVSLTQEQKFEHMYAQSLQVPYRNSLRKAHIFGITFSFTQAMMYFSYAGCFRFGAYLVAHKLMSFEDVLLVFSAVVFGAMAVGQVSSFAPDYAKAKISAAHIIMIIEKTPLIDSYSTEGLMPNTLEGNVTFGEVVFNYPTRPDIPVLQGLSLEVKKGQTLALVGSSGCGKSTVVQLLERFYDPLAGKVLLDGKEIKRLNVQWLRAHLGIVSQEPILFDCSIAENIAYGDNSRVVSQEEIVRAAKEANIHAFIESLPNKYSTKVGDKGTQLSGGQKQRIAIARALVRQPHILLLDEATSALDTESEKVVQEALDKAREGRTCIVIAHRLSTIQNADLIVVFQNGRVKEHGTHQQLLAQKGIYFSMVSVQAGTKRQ

Row | SMILES | Top Hit (P-gp) | % Survival, mean (DU145-TXR cells; [1]) [%] | % Survival (DU145-TXR cells; [2]) [%] | % Survival (DU145-TXR cells; [3]) [%] | % Survival (DU145-TXR cells; [4]) [%] | % Survival (DU145-TXR cells; [5]) [%] | % Survival (DU145-TXR cells; [6]) [%] | % Survival (DU145-TXR cells; [7]) [%] | % Survival (DU145-TXR cells; [8]) [%] | % Survival (DU145-TXR cells; [9]) [%] | viability at 15 µM (DU145-TXR cells; [10]) [%] | viability at 15 µM (DU145-TXR cells; [11]) [%] | viability at 15 µM (DU145-TXR cells; [12]) [%] | viability at 15 µM (DU145-TXR cells; [13]) [%] | viability at 15 µM (DU145-TXR cells; [14]) [%] | viability at 15 µM (DU145-TXR cells; [15]) [%] | viability at 15 µM (DU145-TXR cells; [16]) [%] | viability at 15 µM (DU145-TXR cells; [17]) [%] | viability at 15 µM (DU145-TXR cells; [18]) [%] | Mean % Survival (A2780-ADR cells; [19]) [%] | also measured
1 | Nc1nonc1-n1nnc(C(=O)N/N=C/c2c3ccccc3cc3ccccc23)c1COc1ccc(F)cc1 [Compound 60, Nc1nonc1-n1nnc(C(=O)N\N=C\c2c3ccccc3cc3ccccc23)c1COc1ccc(F)cc1] | No | 92.8 | 84 | 102 | 83 | 120 | 83 | 92 | 89 | 89 | 93.6 | 100 | 103 | 90 | 96 | 93 | 88 | 95 | 83 | – | –
2 | CCN1CCN(Cc2c(C(=O)N/N=C3/C(=O)N(C)c4ccccc43)nnn2-c2nonc2N)CC1 [Compound 61, CCN1CCN(Cc2c(nnn2-c2nonc2N)C(=O)N\N=C2\C(=O)N(C)c3ccccc23)CC1] | No | 51.6 | 62 | 67 | 64 | 77 | 33 | 35 | 31 | 44 | 99.3 | 118 | 117 | 119 | 123 | 93 | 75 | 77 | 72 | – | Re-sensitization of DU145-TXR cells to PTX (reversal of MDR) (DU145-TXR cells; 15 µM compound with or without 500 nM PTX, 48 h, MTT, re-sensitization = 30% or greater decrease in cell viability): re-sensitized DU145-TXR cells to PTX
3 | COc1ccc2c3c([nH]c2c1)[C@H](CC(C)C)N1C(=O)[C@H](CCC(=O)OC(C)(C)C)NC(=O)[C@@H]1C3 [Ko143, reference compound] | – | 72.4 | 75 | 82 | 91 | 77 | 65 | 67 | 58 | 64 | – | – | – | – | – | – | – | – | – | 77.3 | % Survival, mean (DU145-TXR cells; 15 µM Compound Alone, mean of 8 samples): 89.2%; % Survival (DU145-TXR cells; 15 µM Compound Alone, trial 1, sample 1): 101%; % Survival (DU145-TXR cells; 15 µM Compound Alone, trial 1, sample 2): 113%; % Survival (DU145-TXR cells; 15 µM Compound Alone, trial 1, sample 3): 88%; % Survival (DU145-TXR cells; 15 µM Compound Alone, trial 1, sample 4): 91%; % Survival (DU145-TXR cells; 15 µM Compound Alone, trial 2, sample 1): 92%; % Survival (DU145-TXR cells; 15 µM Compound Alone, trial 2, sample 2): 74%; % Survival (DU145-TXR cells; 15 µM Compound Alone, trial 2, sample 3): 75%; % Survival (DU145-TXR cells; 15 µM Compound Alone, trial 2, sample 4): 80%; % Survival (individual sample) (A2780-ADR cells; 1 µM compound + 500 nM PTX): 70% and 74% and 82% and 83% and 73% and 76% and 85% and 71% and 75% and 84%; Mean % Survival (A2780-ADR cells; 1 µM compound alone, mean of 12 samples): 102.8%; % Survival (individual sample) (A2780-ADR cells; 1 µM compound alone): 103% and 101% and 106% and 119% and 127% and 112% and 96% and 91% and 87% and 92% and 99%
4 | COc1cc2c(cc1OC)CN(CCc1ccc(NC(=O)c3cc(OC)c(OC)cc3NC(=O)c3cnc4ccccc4c3)cc1)CC2 [Tariquidar, reference compound] | – | 13.1 | 11 | 10 | 21 | 13 | 20 | 13 | 9 | 7.57 | 101 | 139 | 94 | 96 | 95 | 80 | 106 | 79 | 123 | 55.3 | % Survival (individual sample) (A2780-ADR cells; 1 µM compound + 500 nM PTX, listed as TQR): 58% and 59%; viability at 1 µM (A2780-ADR cells; Homo sapiens, A2780 ADR, 1 µM compound alone, mean of 12 samples, read-out: Mean % Survival): 91%
